This is an account of results in ChEMBL document CHEMBL2424566, “Preparation of betulinic acid derivatives by chemical and biotransformation methods and determination of cytotoxicity against selected cancer cell lines” (Eur J Med Chem, 2013).

Activity calls are given as the source filed them. The calls are words filed in the database; no cut-off is given here.

For assay [1], the system named is MCF7. Description: Selectivity index, ratio of IC50 for human CCD-18Co cells to IC50 for human MCF7 cells. It is filed as functional.
In assay [2] the test system is A549. The assay is described as follows: Cell cycle arrest in human A549 cells assessed as accumulation at S phase at IC80 after 48 hrs by propidium iodide staining-based flow cytometric analysis (19.1 +/- 1.05%). Format: functional.
Assay [3] deals with A549. The assay is described as follows: Induction of apoptosis in human A549 cells assessed as early apoptosis and secondary necrosis at IC80 after 48 hrs by annexin V-FITC staining-based flow cytometric analysis relative to control. It is filed as functional.
Assay [4] in a line: Cytotoxicity against human CCD-18Co cells assessed as cell viability after 96 hrs by SRB assay. Format: cell-based.
Assay [5] in a line: Selectivity index, ratio of IC50 for human CCD-18Co cells to IC50 for human 8505C cells. Format: functional, 8505C;CCD-18Co.
For assay [6], the system named is A549. The assay is described as follows: Induction of apoptosis in human A549 cells assessed as chromatin condensation at IC80 after 24 hrs by acridine orange/ethidium bromide staining-based fluorescence microscopic analysis. Format: functional, cell-based.
Assay [7] concerns A549. Description: Induction of apoptosis in human A549 cells assessed as early apoptosis and secondary necrosis at IC80 after 24 hrs by annexin V-FITC staining-based flow cytometric analysis relative to control. Format: functional.
Assay [8] deals with A549. The assay is described as follows: Cell cycle arrest in human A549 cells assessed as accumulation at subG1 phase at IC80 after 24 hrs by propidium iodide staining-based flow cytometric analysis (2.73 +/- 0.49%). Format: functional.
In assay [9] the test system is MCF7. Description: Cytotoxicity against human MCF7 cells assessed as cell viability after 96 hrs by SRB assay. Format: functional, cell-based. Conditions: MCF7, 96 h.
The test system of assay [10] is A549. The assay is described as follows: Cell cycle arrest in human A549 cells assessed as accumulation at S phase at IC80 by propidium iodide staining-based flow cytometric analysis. Format: functional. As to conditions: TDE = time-dependent effect.
Assay [11] deals with A549. Description: Cell cycle arrest in human A549 cells assessed as accumulation at G0/G1 phase at IC80 by propidium iodide staining-based flow cytometric analysis. Format: functional. As to conditions: TDE = time-dependent effect.
Assay [12] deals with A549. The assay is described as follows: Cell cycle arrest in human A549 cells assessed as accumulation at subG1 phase at IC80 by propidium iodide staining-based flow cytometric analysis. It is filed as functional. Conditions: TDE = time-dependent effect.
A short description of assay [13]: Cytotoxicity against human 518A2 cells assessed as cell viability after 96 hrs by SRB assay. It is filed as functional, cell-based. Conditions: 518A2, 96 h.
Assay [14] has as its system A549. The assay is described as follows: Cytotoxicity against human A549 cells assessed as cell viability after 96 hrs by SRB assay. Format: functional, cell-based. As to conditions: A549, 96 h.
For assay [15], the system named is A549. Description: Cell cycle arrest in human A549 cells assessed as accumulation at G2/M phase at IC80 after 48 hrs by propidium iodide staining-based flow cytometric analysis (26 +/- 1.1%). Format: functional.
Assay [16] relates to A549. The assay is described as follows: Cell cycle arrest in human A549 cells assessed as accumulation at subG1 phase at IC80 after 48 hrs by propidium iodide staining-based flow cytometric analysis (3.23 +/- 0.25%). Format: functional.
Assay [17] deals with A549. Description: Cell cycle arrest in human A549 cells assessed as accumulation at G0/G1 phase at IC80 after 48 hrs by propidium iodide staining-based flow cytometric analysis (48.5 +/- 1.82%). It is filed as functional.
The test system of assay [18] is A2780. Description: Selectivity index, ratio of IC50 for human CCD-18Co cells to IC50 for human A2780 cells. Format: functional.
The test system of assay [19] is A549. The assay is described as follows: Cell cycle arrest in human A549 cells assessed as accumulation at G2/M phase at IC80 after 24 hrs by propidium iodide staining-based flow cytometric analysis (24.9 +/- 1.46%). Format: functional.
Assay [20] deals with A549. Description: Induction of apoptosis in human A549 cells assessed as apoptotic bodies at IC80 after 24 hrs by acridine orange/ethidium bromide staining-based fluorescence microscopic analysis. It is filed as functional, cell-based.
Assay [21] deals with A549. The assay is described as follows: Induction of apoptosis in human A549 cells assessed as occurrence of typical DNA ladders at IC80 after 72 hrs by agarose gel electrophoresis. It is filed as functional, cell-based.
Assay [22] deals with A549. Description: Induction of apoptosis in human A549 cells assessed as membrane blebbing at IC80 after 24 hrs by acridine orange/ethidium bromide staining-based fluorescence microscopic analysis. It is filed as functional, cell-based.
Assay [23] relates to A549. The assay is described as follows: Selectivity index, ratio of IC50 for human CCD-18Co cells to IC50 for human A549 cells. Format: functional.
Assay [24] concerns A549. Description: Cell cycle arrest in human A549 cells assessed as accumulation at G2/M phase at IC80 by propidium iodide staining-based flow cytometric analysis. Format: functional. Conditions: TDE = time-dependent effect.
Assay [25] deals with A2780. Description: Cytotoxicity against human A2780 cells assessed as cell viability after 96 hrs by SRB assay. Format: functional, cell-based. As to conditions: A2780, 96 h.
Assay [26] relates to A549. Description: Cell cycle arrest in human A549 cells assessed as accumulation at G0/G1 phase at IC80 after 24 hrs by propidium iodide staining-based flow cytometric analysis (49.5 +/- 2.51%). It is filed as functional.
For a further assay, the system named is 8505C. The assay is described as follows: Cytotoxicity against human 8505C cells assessed as cell viability after 96 hrs by SRB assay. It is filed as functional, cell-based.
Assay [27] deals with A549. Description: Cell cycle arrest in human A549 cells assessed as accumulation at S phase at IC80 after 24 hrs by propidium iodide staining-based flow cytometric analysis (20.2 +/- 0.81%). It is filed as functional.
The test system of assay [28] is A549. The assay is described as follows: Induction of apoptosis in human A549 cells assessed as DNA fragmentation at IC80 after 24 hrs by acridine orange/ethidium bromide staining-based fluorescence microscopic analysis. Format: functional, cell-based.
A short description of assay [29]: Selectivity index, ratio of IC50 for human CCD-18Co cells to IC50 for human 518A2 cells. It is filed as functional.

`C[C@@H](C=O)[C@@H]1CC[C@]2(C(=O)O)CC[C@]3(C)[C@H](CC[C@@H]4[C@@]5(C)CC/C(=N\Nc6ccc([N+](=O)[O-])cc6[N+](=O)[O-])C(C)(C)[C@@H]5CC[C@]43C)[C@@H]12`: the “Ratio IC50” value (with MCF7 [1]; in [5]; in the assay on A2780 [18]; in the assay on A549 [23]; in assay [29]) was 3 each time. In addition, the Activity with A549 [2] was 14.6%; with A549 [3], 8%; with A549 [7] it was 12%; with A549 [8], 8.77%; with A549 [10] it was “tde”; in the assay with A549 [11], “tde”. Further, the Activity result is “tde” in the assay on A549 [12]; 15.9% in the assay on A549 [15]; 18.3% in the assay on A549 [16]; 49.7% in the assay on A549 [17]; 13.9% with A549 [19]; “tde” in the assay with A549 [24]. Further, the Activity with A549 [26] is 60.9%; in the assay with A549 [27], 14.8%. Further, the IC50 in assay [4] amounted to 8.3 µM; in the assay on MCF7 [9], 2.51 µM; in assay [13], 1.91 µM; in the assay on A549 [14], 1.79 µM; with A2780 [25], 1.76 µM; in the assay with 8505C, 2.44 µM. Further, the result in the assay on A549 [6], in the assay on A549 [20], in the assay with A549 [21], in the assay with A549 [22] and in the assay on A549 [28] was Active.

For `C/C(=N\Nc1ccc([N+](=O)[O-])cc1[N+](=O)[O-])[C@@H]1CC[C@]2(C(=O)O)CC[C@]3(C)[C@H](CC[C@@H]4[C@@]5(C)CC[C@H](O)C(C)(C)[C@@H]5CC[C@]43C)[C@@H]12`, the “Ratio IC50” value (with MCF7 [1]; in assay [5]; with A2780 [18]; in the assay with A549 [23]; in assay [29]) was 5 throughout. In addition, the IC50 came out at 56.7 µM in assay [4]; 6.84 µM in the assay with MCF7 [9]; 9.09 µM in assay [13]; 7.62 µM with A549 [14]; 11.3 µM in the assay on A2780 [25]; 8.72 µM in the assay on 8505C. In addition, the outcome in the assay on A549 [6], in the assay with A549 [20], with A549 [22] and in the assay with A549 [28] was Active.
